Experimental data taken from ChEMBL document CHEMBL1134192, “Targeting RNA with peptidomimetic oligomers in human cells” (Bioorg Med Chem Lett, 2001).

Species: Homo sapiens
Test: Concentration that inhibits transcriptional activation of Tat protein in human cells
Format: functional, cell-based

| Structure (SMILES) | IC50 [nM] |
| --- | --- |
| N=C(N)NCCC[C@@H](COC(=O)N[C@@H](CCCCN)COC(=O)N[C@@H](CCCCN)COC(=O)N[C@@H](CCCN=C(N)N)COC(=O)N[C@@H](CCCN=C(N)N)COC(=O)N[C@@H](CCC(N)=O)COC(=O)N[C@@H](CCCN=C(N)N)COC(=O)N[C@@H](CCCN=C(N)N)COC(=O)N[C@@H](CCCN=C(N)N)C(=O)O)NC(=O)OCCNC(=O)[C@@H](N)Cc1ccc(O)cc1 | 500 |
| NCCCC[C@H](CNC(=O)N[C@H](CCCCN)CNC(=O)N[C@H](CCCN=C(N)N)CNC(=O)N[C@H](CCCN=C(N)N)CNC(=O)N[C@H](CCC(N)=O)CNC(=O)N[C@H](CCCN=C(N)N)CNC(=O)N[C@H](CCCN=C(N)N)CNC(=O)N[C@H](CCCN=C(N)N)CNC(=O)[C@@H](N)Cc1ccc(O)cc1)NC(=O)NC[C@@H](CCCN=C(N)N)NC(=O)NCCNC(N)=O | 1000 |
